Results reported in patent US10947260B2, “Phosphinolactone derivatives and pharmaceutical uses thereof” (INSTITUT NATIONAL DE LA SANTE ET DE LA RECHERCHE MEDICALE …, priority 2016, dated 2021).

How the values were obtained:
[1] = tested on: mice treated with scopolamine; assay: Spontaneous alternation in Y-maze, scopolamine amnesia model; assay type: in vivo
Method: (§1) FIG. 5: Anti-amnesic effect of compound 3b in mice treated with scopolamine: (a, b) spontaneous alternation in Y-maze, and (c, d) passive avoidance. The mice were given compound 3b (0.03-1.5 mg/kg IP) 10 min before scopolamine (0.5 mg/kg SC), 20 min before the Y-maze session or passive avoidance training. Y-maze test: (a) spontaneous alternation and (b) total number of arm entries; retention of passive avoidance: (c) step-through latency and (d) escape latency. ANOVA: F(6.94)=5.32, p<0.0001 at (a); F(6.94)=10.6, p<0.0001 at (b); H=31.4, p<0.0001 at (c); H=24.3, p<0.001 at (d); n=12-19 per group. *p<0.05, **p<0.01, ***p<0.001 compared with group (Sc.Aβ+V); #p<0.05, ##p<0.01, ###p<0.001 compared with group (Aβ25-35+V); Dunnett test at (a, b) and Dunn at (c, d).
FIG. 6: Analysis of the antagonism of anti-amnesic effects of compound 3b in mice treated with scopolamine: (a, c, e) spontaneous alternation in Y-maze, and (b, d, f) step-through latency at recall session of passive avoidance. The mice were treated with methyllycaconitine (MLA, 1 or 3 mg/kg IP), dihydro-ß-erythroidine (DHßE, 1 or 3 mg/kg IP), or NE100 (1 mg/kg IP), simultaneously with compound 3b (0.1 mg/kg IP) 10 min before scopolamine (S, 0.5 mg/kg SC), 20 min before behavioural session. ANOVA: F(5.87)=7.19, p<0.0001 at (a); H=31.3, p<0.0001 at (b); F(5.82)=5.82, p<0.0001 at (c); H=28.8, p<0.0001 at (d); F(4.77)=10.0, p<0.0001 at (e); H=30.5, p<0.0001 at (f); n=12-17 per group. *p<0.05, **p<0.01, ***p<0.001 compared with group (Sc.Aβ+V); #p<0.05, ##p<0.01, ###p<0.001 compared with group (Aβ25-35+V); Dunnett test at (a, b) and Dunn at (c, d).
The animals were tested for spontaneous alternation performance in a Y-maze, an index of spatial working memory. The Y-maze was in grey PVC. Each arm was 40 cm long, 13 cm high, 3 cm wide at the base and 10 cm wide in the upper part, and converging at an equal angle. Each mouse was placed at one end of an arm and was able to move freely through the maze during an 8-min session. The series of arm entries, including any returns in the same arm were visually analysed. Alternation is defined as being consecutive entries in three different arms. The maximum number of alternations is therefore the total number of arm entries less two, and alternation percentage is calculated as (actual alternations/maximum possible alternations)×100. […]
(§2) Finally, a first mechanistic analysis of the pharmacological effect in vivo of compound 3b was carried out. With the objective of confirming that the compound, neuroprotective against amyloid toxicity, could also be anti-amnesic in a pharmacological amnesia model, we first determined its effectiveness against the amnesic effects of scopolamine. […]

[2] = tested on: mice treated with scopolamine; assay: Passive avoidance, scopolamine amnesia model; assay type: in vivo
Method: as §1
FIG. 6: Analysis of the antagonism of anti-amnesic effects of compound 3b in mice treated with scopolamine: (a, c, e) spontaneous alternation in Y-maze, and (b, d, f) step-through latency at recall session of passive avoidance. The mice were treated with methyllycaconitine (MLA, 1 or 3 mg/kg IP), dihydro-ß-erythroidine (DHßE, 1 or 3 mg/kg IP), or NE100 (1 mg/kg IP), simultaneously with compound 3b (0.1 mg/kg IP) 10 min before scopolamine (S, 0.5 mg/kg SC), 20 min before behavioural session. […]
The apparatus contained two compartments (15×20×15 cm in height) with one light part having walls in white PVC and the other dark with walls in black PVC and a grid floor. […] Step-through latency (STL) i.e. the time taken to enter the dark compartment and the number of cries, were recorded. […] Step-through latency was recorded up to 300 s.
as §2

[3] = tested on: mice; assay: Forced swim test; assay type: in vivo
Method: FIG. 13: Assays of compound 3b as positive modulator of the sigma-1 protein. […] Male Swiss mice aged 7 weeks (n=10-12 per group) were forced to swim for 15 min on Day 1 and 6 min on Day 2. They were given NE-100 (10 mg/kg ip), 10 min before compound 3b (10 mg/kg ip) and 20 min before the session of Day 2. Immobility was measured over the last 5 minutes of the session. The vehicle solution was distilled water. F(3.42)=4.45, p<0.01; **p<0.01 vs. group V/V, ##p<0.01 vs. group V/3b, Dunnet test. […] Wild-type mice (Wt, n=14-15) and S1R KO mice (n=9-10) were forced to swim 15 min on Day 1 and 6 min on Day 2. They were given compound 3b (10 mg/kg ip) 20 min before the session on Day 2. Immobility was measured during the last 5 minutes of the session. The vehicle solution was distilled water. F(3.49)=6.64, p<0.001; **p<0.01 vs. group Wt/V, Dunnett test. […] Male Swiss mice aged 7 weeks (n=8-23 per group) were forced to swim for 15 min on Day 1 and 6 min on Day 2. They were given igmesine (10, 30 mg/kg ip) and/or compound 3b (10 mg/kg ip) 20 min before the session on Day 2. NE-100 (10 mg/kg ip) was injected 10 min before igmesine and compound 3b. Immobility was measured during the last 5 minutes of the session. The vehicle solution was distilled water. F(6.90)=5.59, p<0.0001; ***p<0.001 vs. group V, ##p<0.01 vs. group V/Igmesine (10)+3B (5), Dunnett test.

[4] = tested on: mice treated with Aβ25-35; details: IP; Aβ25-35 model; cited from earlier work
[5] = tested on: mice treated with peptide Aβ25-35; assay: In vivo screening of derivatives as neuroprotectors (spontaneous alternation, passive avoidance, ROS level), Aβ25-35 model; details: 0.3 mg/kg IP
Method: FIG. 7: Screening of phosphinolactones as neuroprotectors in mice treated with peptide Aβ25-35: (a) spontaneous alternation; (b) passive avoidance step-through latency; (c) Levels of reactive oxygen species in hippocampus. The mice were given compound 3b (0.3, 0.7 mg/kg IP) or a dose of each compound (0.3 mg/kg IP) 20 min before I′Aβ25-35 or the control peptide Sc.Aβ (9 nmol ICV). The animals were tested in the Y-maze on Day 7 after the ICV injections and for passive avoidance on Days 8-9, and then sacrificed. In each graph at (a-c), the 50% protection level compared with the deficit induced by Aβ25-35 is plotted as a dotted line. It is to be noted that at (a), the column represents the median and the error bars represent the deviations 25%-75% (=asymmetric deviations). n=12 at (a, b) and 5-6 at (c). ANOVA on groups 1-4: F(3.63)=7.95, p<0.001 at (b); H=24.1, p<0.0001 at (c); F(3.44)=6.33, p<0.01 at (d). *p<0.05, **p<0.01, ***p<0.001 compared with group (Sc.Aβ+V); #p<0.05, ##p<0.01, ###p<0.001 compared with group (Aβ25-35+V); Dunnett test at (a, c) and Dunn at (b). The values of the groups 5-12 (screened compounds) were analysed by t-test at (a, c) or Mann-Whitney at (b).
From the molecules derived from the synthesis, a panel of 8 derivatives was selected and screened for potential neuroprotective efficacy. The compounds were injected at a dose of 0.3 mg/kg IP, i.e. the maximum non-active dose of 3b and compared with 3b injected at 0.3 and 0.7 mg/kg IP. The compounds were injected […] before the Aß25-35 peptide, and the mice were tested for spontaneous alternation on Day 7, passive avoidance on Days 8 and 9 and the ROS level was measured in the hippocampus (FIG. 7). For each response (spontaneous alternation: FIG. 7a; step-through latency in passive avoidance: FIG. 7b, and DCF fluorescence level: FIG. 7c), a 50% level of the effect between the values of the ScAß and Aß25-35 animals was taken as criterion of efficacy. […] Compound 3c is an isomer at the position of the chlorine atom of 3b. Regarding compound 3n, this has a 5-pyrimidyl group attached to the phosphorus atom, and for compound 3l it is a 4-pyridinyl group.

[6] = antagonist 1 mg/kg IP with 3b 0.1 mg/kg IP
[7] = antagonist at the two doses tested (1 or 3 mg/kg IP) with 3b 0.1 mg/kg IP

CCCN(CCC)CCc1ccc(OC)c(OCCc2ccccc2)c1 [NE100]
antagonism of the anti-amnesic effect of compound 3b, spontaneous alternation [1, 6]: blocked the effect of compound 3b
antagonism of the anti-amnesic effect of compound 3b, passive avoidance [2, 6]: attenuated the effect
blockade of the antidepressant effect of compound 3b ([3]; NE-100 10 mg/kg ip, 10 min before 3b 10 mg/kg ip): blocked

CO[C@H]1CC=C2CCN3CCC4=C(CC(=O)OC4)[C@]23C1 [DhßE, dihydro-β-erythroidine]
antagonism of the anti-amnesic effect of compound 3b, spontaneous alternation [1, 7]: ineffective
antagonism of the anti-amnesic effect of compound 3b, passive avoidance [2, 7]: ineffective

CC12CC3CC(C)(C1)CC(N)(C3)C2 [memantine]
active dose of reference molecules in this model [4]: 1 mg/kg

CCC(C/C=C/c1ccccc1)(c1ccccc1)N(C)CC1CC1 (centres unmarked) [igmesine]
activity in forced swim test ([3]; 10 mg/kg): not active

CCN1C[C@]2(COC(=O)c3ccccc3N3C(=O)C[C@H](C)C3=O)CC[C@H](OC)[C@@]34[C@@H]5C[C@H]6[C@H](OC)[C@@H]5[C@](O)(C[C@@H]6OC)[C@@](O)([C@@H](OC)[C@H]23)[C@@H]14 [MLA, methyllycaconitine]
antagonism of the anti-amnesic effect of compound 3b, spontaneous alternation ([1]; antagonist 3 mg/kg IP with 3b 0.1 mg/kg IP): blocked the anti-amnesic effect of compound 3b
antagonism of the anti-amnesic effect of compound 3b, passive avoidance [2, 6]: attenuated the effect

CC1(C)COP(=O)(c2ccncc2)C(C)(C)N1 (racemic) [Compound 3l, (±)-2-(Pyridin-4-yl)-2-oxo-3,3,5,5-tetramethyl-[1,4,2]-oxazaphosphinane]
criterion of efficacy: 50% level of the effect between ScAβ and Aβ25-35 animals (spontaneous alternation, step-through latency, DCF fluorescence) [5]: met the criterion for the 3 parameters

CC1(C)COP(=O)(c2cncnc2)C(C)(C)N1 (racemic) [Compound 3n, (±)-2-(Pyrimidin-5-yl)-2-oxo-3,3,5,5-tetramethyl-[1,4,2]-oxazaphosphinane]
criterion of efficacy: 50% level of the effect between ScAβ and Aβ25-35 animals (spontaneous alternation, step-through latency, DCF fluorescence) [5]: met the criterion for the 3 parameters
